Test results as given in paper PMC10460844, “Real‐Time Monitoring of Multitarget Antimicrobial Mechanisms of Peptoids Using Label‐Free Imaging with Optical Diffraction Tomography” (Advanced Science, 2023).
Numbered stars: 1 amine (or outer) side, 2 acyl side, 3 side chain; on linkers, the order of the positions; unused ones are H or OH. Square brackets hold non-standard residues; d marks the D form. Peptide text beside a SMILES is read from it. Gly(N(CH2)2(3-indolyl)) = O=C(O)CNCCc1c[nH]c2ccccc12; Nspe = C[C@H](NCC(=O)O)c1ccccc1; X1 = O=C(CN(CCCCO)[*:1])[*:2]; Nlys = NCCCCNCC(=O)O

Assay: Analytical reversed-phase HPLC elution (hydrophobicity)
Assay type: physicochemical
Conditions: Table S1; analytical RP-HPLC, SunFire C18, water/ACN + 0.1% TFA, 5 to 100% B linear over 30 min, 1 mL/min, UV 220 nm; approximate comparison of hydrophobicity
Experimental: 7. HPLC chromatogram, retention time (tR), and LC-MS data
HPLC analysis of peptoids was conducted using a Waters HPLC system equipped with a Waters 2489 UV/Visible Detector, 1525 Binary HPLC Pump, 2707 Autosampler, 5CH column oven, and a C18 column (SunFire C18, 4.6 × 250 mm, 5 μm; Waters Corp., Milford, MA, USA). The mobile phases were deionized water (A, with + 0.1% TFA) and acetonitrile (ACN; B, with + 0.1% TFA). Before sample injection, the column was conditioned with 5% B for 10 min. Then, the mobile phase was maintained at 5% B for 2 min, followed by increasing B to 100% using a linear gradient over 30 min. At this point, 100% B was maintained for 5 additional min. The flow rate of the mobile phase was 1 mL/min. The sample was detected by measuring absorbance at 220 nm. […]

Row | HPLC elution | SMILES
1 | 46.1 % MeCN | C[C@@H](c1ccccc1)N(CC(N)=O)C(=O)CN(CCCCN)C(=O)CN(C(=O)CN(CCCCN)C(=O)CN(CCCCN)C(=O)CN(C(=O)CN(C(=O)CN(CCCCN)C(=O)CN(C(=O)CN(C(=O)CNCCCCN)[C@@H](C)c1ccccc1)[C@@H](C)c1ccccc1)[C@@H](C)c1ccccc1)[C@@H](C)c1ccccc1)[C@@H](C)c1ccccc1 [peptoid 50]
2 | 45.3 % MeCN | C[C@@H](c1ccccc1)N(CC(N)=O)C(=O)CN(CCCCN)C(=O)CN(C(=O)CN(C(=O)CN(CCCCN)C(=O)CN(C(=O)CN(CCCCN)C(=O)CN(CCCCN)C(=O)CN(C(=O)CN(C(=O)CNCCCCN)[C@@H](C)c1ccccc1)[C@@H](C)c1ccccc1)[C@@H](C)c1ccccc1)[C@@H](C)c1ccccc1)[C@@H](C)c1ccccc1 [peptoid 51]
3 | 46.9 % MeCN | C[C@@H](c1ccccc1)N(CC(N)=O)C(=O)CN(CCCCN)C(=O)CN(C(=O)CN(C(=O)CN(CCCCN)C(=O)CN(C(=O)CN(C(=O)CN(CCCCN)C(=O)CN(C(=O)CN(CCCCN)C(=O)CNCCCCN)[C@@H](C)c1ccccc1)[C@@H](C)c1ccccc1)[C@@H](C)c1ccccc1)[C@@H](C)c1ccccc1)[C@@H](C)c1ccccc1 [peptoid 52]
4 | 48.5 % MeCN | C[C@H](NCC(=O)N(CCCCN)CC(=O)N(CC(=O)N(CC(=O)N(CCCCN)CC(=O)N(CC(=O)N(CC(=O)N(CCCCN)CC(=O)N(CC(=O)N(CC(=O)N(CCCCN)CC(=O)N(CCCCN)CC(N)=O)[C@@H](C)c1ccccc1)[C@@H](C)c1ccccc1)[C@@H](C)c1ccccc1)[C@@H](C)c1ccccc1)[C@@H](C)c1ccccc1)[C@@H](C)c1ccccc1)c1ccccc1 [peptoid 53] (H-[Nspe][Nlys][Nspe][Nspe][Nlys][Nspe][Nspe][Nlys][Nspe][Nspe][Nlys][Nlys]-NH2)
5 | 48.1 % MeCN | C[C@H](NCC(=O)N(CCCCN)CC(=O)N(CC(=O)N(CC(=O)N(CCCCN)CC(=O)N(CC(=O)N(CC(=O)N(CCCCN)CC(=O)N(CCCCN)CC(=O)N(CC(=O)N(CCCCN)CC(=O)N(CC(N)=O)[C@@H](C)c1ccccc1)[C@@H](C)c1ccccc1)[C@@H](C)c1ccccc1)[C@@H](C)c1ccccc1)[C@@H](C)c1ccccc1)[C@@H](C)c1ccccc1)c1ccccc1 [peptoid 54] (H-[Nspe][Nlys][Nspe][Nspe][Nlys][Nspe][Nspe][Nlys][Nlys][Nspe][Nlys][Nspe]-NH2)
6 | 47.2 % MeCN | C[C@H](NCC(=O)N(CCCCN)CC(=O)N(CC(=O)N(CC(=O)N(CCCCN)CC(=O)N(CCCCN)CC(=O)N(CC(=O)N(CCCCN)CC(=O)N(CC(=O)N(CC(=O)N(CCCCN)CC(=O)N(CC(N)=O)[C@@H](C)c1ccccc1)[C@@H](C)c1ccccc1)[C@@H](C)c1ccccc1)[C@@H](C)c1ccccc1)[C@@H](C)c1ccccc1)[C@@H](C)c1ccccc1)c1ccccc1 [peptoid 55] (H-[Nspe][Nlys][Nspe][Nspe][Nlys][Nlys][Nspe][Nlys][Nspe][Nspe][Nlys][Nspe]-NH2)
7 | 48.0 % MeCN | C[C@H](NCC(=O)N(CCCCN)CC(=O)N(CCCCN)CC(=O)N(CC(=O)N(CCCCN)CC(=O)N(CC(=O)N(CC(=O)N(CCCCN)CC(=O)N(CC(=O)N(CC(=O)N(CCCCN)CC(=O)N(CC(N)=O)[C@@H](C)c1ccccc1)[C@@H](C)c1ccccc1)[C@@H](C)c1ccccc1)[C@@H](C)c1ccccc1)[C@@H](C)c1ccccc1)[C@@H](C)c1ccccc1)c1ccccc1 [peptoid 56] (H-[Nspe][Nlys][Nlys][Nspe][Nlys][Nspe][Nspe][Nlys][Nspe][Nspe][Nlys][Nspe]-NH2)
8 | 49.1 % MeCN | C[C@@H](c1ccccc1)N(CC(=O)N(CCCCN)CC(=O)N(CC(=O)N(CC(=O)N(CCCCN)CC(=O)N(CC(=O)N(CC(=O)N(CCCCN)CC(=O)N(CCCCN)CC(N)=O)[C@@H](C)c1ccccc1)[C@@H](C)c1ccccc1)[C@@H](C)c1ccccc1)[C@@H](C)c1ccccc1)C(=O)CN(C(=O)CN(CCCCN)C(=O)CNCCc1c[nH]c2ccccc12)[C@@H](C)c1ccccc1 [peptoid 57] (H-[Gly(N(CH2)2(3-indolyl))][Nlys][Nspe][Nspe][Nlys][Nspe][Nspe][Nlys][Nspe][Nspe][Nlys][Nlys]-NH2)
9 | 48.7 % MeCN | C[C@@H](c1ccccc1)N(CC(N)=O)C(=O)CN(CCCCN)C(=O)CN(C(=O)CN(CCCCN)C(=O)CN(CCCCN)C(=O)CN(C(=O)CN(C(=O)CN(CCCCN)C(=O)CN(C(=O)CN(C(=O)CN(CCCCN)C(=O)CNCCc1c[nH]c2ccccc12)[C@@H](C)c1ccccc1)[C@@H](C)c1ccccc1)[C@@H](C)c1ccccc1)[C@@H](C)c1ccccc1)[C@@H](C)c1ccccc1 [peptoid 58]
10 | 47.8 % MeCN | C[C@@H](c1ccccc1)N(CC(N)=O)C(=O)CN(CCCCN)C(=O)CN(C(=O)CN(C(=O)CN(CCCCN)C(=O)CN(C(=O)CN(CCCCN)C(=O)CN(CCCCN)C(=O)CN(C(=O)CN(C(=O)CN(CCCCN)C(=O)CNCCc1c[nH]c2ccccc12)[C@@H](C)c1ccccc1)[C@@H](C)c1ccccc1)[C@@H](C)c1ccccc1)[C@@H](C)c1ccccc1)[C@@H](C)c1ccccc1 [peptoid 59]
11 | 48.6 % MeCN | C[C@@H](c1ccccc1)N(CC(N)=O)C(=O)CN(CCCCN)C(=O)CN(C(=O)CN(C(=O)CN(CCCCN)C(=O)CN(C(=O)CN(C(=O)CN(CCCCN)C(=O)CN(C(=O)CN(CCCCN)C(=O)CN(CCCCN)C(=O)CNCCc1c[nH]c2ccccc12)[C@@H](C)c1ccccc1)[C@@H](C)c1ccccc1)[C@@H](C)c1ccccc1)[C@@H](C)c1ccccc1)[C@@H](C)c1ccccc1 [peptoid 60]
12 | 66.7 % MeCN | NC(=O)CN(CCc1c[nH]c2ccccc12)C(=O)CN(CCc1c[nH]c2ccccc12)C(=O)CN(CCCCO)C(=O)CN(CCc1c[nH]c2ccccc12)C(=O)CN(CCc1c[nH]c2ccccc12)C(=O)CN(CCCCO)C(=O)CN(CCc1c[nH]c2ccccc12)C(=O)CN(CCc1c[nH]c2ccccc12)C(=O)CN(CCCCO)C(=O)CN(CCc1c[nH]c2ccccc12)C(=O)CN(CCc1c[nH]c2ccccc12)C(=O)CNCCCCO [peptoid 65] (H-[X1][Gly(N(CH2)2(3-indolyl))][Gly(N(CH2)2(3-indolyl))][X1][Gly(N(CH2)2(3-indolyl))][Gly(N(CH2)2(3-indolyl))][X1][Gly(N(CH2)2(3-indolyl))][Gly(N(CH2)2(3-indolyl))][X1][Gly(N(CH2)2(3-indolyl))][Gly(N(CH2)2(3-indolyl))]-NH2)
13 | 64.7 % MeCN | C[C@@H](c1ccccc1)N(CC(=O)N(CCCCO)CC(=O)N(CCc1c[nH]c2ccccc12)CC(=O)N(CCc1c[nH]c2ccccc12)CC(N)=O)C(=O)CN(CCCCO)C(=O)CN(CCCCO)C(=O)CN(C(=O)CN(C(=O)CN(CCCCO)C(=O)CN(C(=O)CN(C(=O)CNCCCCO)[C@@H](C)c1ccccc1)[C@@H](C)c1ccccc1)[C@@H](C)c1ccccc1)[C@@H](C)c1ccccc1 [peptoid 66]
